Measured values reported in the NIST ThermoML archive (doi:10.1016/j.fluid.2014.09.011).
Numbers after ± are expanded uncertainties.

Assay: activity coefficient (dimensionless); of the first substance listed, at infinite dilution; xn = mol fraction of the nth substance listed
Details: 298.15 K; 238 kPa; Liquid; Chromatography; x1 = 0

Compound	activity coefficient
CC(C)(C)Cl [2-chloro-2-methylpropane] + CC(O)CCO	18.1 ± 3.1
CC(C)(C)Cl [2-chloro-2-methylpropane] + CNC=O	6.3 ± 0.3
CC(C)(C)Cl [2-chloro-2-methylpropane] + CO	6.1 ± 0.3
CC(C)(C)Cl [2-chloro-2-methylpropane] + CCCCCO	2.4 ± 0.4
CC(C)(C)Cl [2-chloro-2-methylpropane] + CCCCCCO	2.4 ± 0.2
CC(C)(C)Cl [2-chloro-2-methylpropane] + CCCCCCCC	1.3 ± 0.2
CC(C)(C)Cl [2-chloro-2-methylpropane] + C1CCCCC1	1.2 ± 0.2
CC(C)(C)Cl [2-chloro-2-methylpropane] + CC(C)O	3 ± 0.6
CC(C)(C)Cl [2-chloro-2-methylpropane] + CCCCCCC	1.02 ± 0.08
CC(C)(C)Cl [2-chloro-2-methylpropane] + CCC(O)CO	6.4 ± 0.5
CC(C)(C)Cl [2-chloro-2-methylpropane] + CCOC(C)=O	0.9 ± 0.2
CC(C)(C)Cl [2-chloro-2-methylpropane] + OCCOCCO	11.2 ± 2
CC(C)(C)Cl [2-chloro-2-methylpropane] + CC(O)C(C)O	12.3 ± 2
CC(C)(C)Cl [2-chloro-2-methylpropane] + COCCO	2.9 ± 0.4
CC(C)(C)Cl [2-chloro-2-methylpropane] + OCCOCCOCCO	6.8 ± 0.8
CC(C)(C)Cl [2-chloro-2-methylpropane] + CCCO	3.1 ± 0.4
CC(C)(C)Cl [2-chloro-2-methylpropane] + CCO	4.5 ± 0.6
CC(C)(C)Cl [2-chloro-2-methylpropane] + OCCO	51.7 ± 10
CC(C)(C)Cl [2-chloro-2-methylpropane] + ClCCCl	0.99 ± 0.1
CC(C)(C)Cl [2-chloro-2-methylpropane] + CC(O)CO	17.3 ± 2.1
CC(C)(C)Cl [2-chloro-2-methylpropane] + CCCCO	2.4 ± 0.4
CC(C)(C)Cl [2-chloro-2-methylpropane] + c1ccccc1	0.89 ± 0.08
